“Also recorded” adds a separate entry of the source. Like-named read-outs stand apart in the source and are kept apart here.
Tests used:
[1] = system: CIGR1 gene and CIGR2 gene; assay: Induction of CIGR1 and CIGR2 gene expression by gibberellin in cultured rice cells (Northern blot hybridization); type: cell-based, rice (Oryza sativa cv. Nipponbare); details: for induction of CIGR1 and CIGR2 gene expression by gibberellin species: cultured rice cells treated for ten minutes
Procedure: (§1) (1) Rice cultured cells: The cultured cells of rice were induced from germinating rice seeds (Oryza sativa cv. Nipponbare) on an N6 agar plate containing 1 ppm 2,4-D (2,4-dichlorophenoxyacetic acid). The cells were successively cultured in liquid N6 medium as follows: Once a week, cells of about 1 ml in volume were transferred to 150 ml of N6 medium. Every two weeks, cell clusters were passed through a 20-mesh metal screen to reduce their size. Cells which had been transferred to 30 ml of medium with no screen treatment, and then shake-cultured for four to six days, were used for extraction of RNA for Northern blotting.
(§2) (2) RNA extraction: The extraction of total RNA from cultured cells and green leaves of rice was carried out according to the phenol-SDS method. A Polytron homogenizer was used to homogenize living tissue in the presence of about tenfold or more volume to tissue-volume of phenol (about 90% saturated with water), and a volume of buffer solution (50 mM Tris-HCl pH 9.0, 1% SDS, 50 mM NaCl) equal to this phenol volume. The aqueous phase obtained by centrifugation was then repeatedly extracted with phenol. Total nucleic acid was precipitated by adding 0.6 volume of isopropanol to the extract and stirring the mixture. After dissolving the precipitate in water, a 0.25 volume of 10M LiCl was added, and the mixture was cooled on ice. High molecular weight RNA was collected by centrifugation, washed with 70% ethanol, and then dissolved in a small volume of water to be used as an RNA sample.
[…] Gibberellin (GA3 dissolved in ethanol) was added to make up each final concentration, cells were cultured with shaking for predetermined periods, and then used for RNA extraction. Nipponbare plants grown for three weeks after seeding were sprayed with gibberellin. The third and fourth leaves were collected at certain intervals, and total RNA was extracted. Elicitor treatment was carried out by directly adding aqueous elicitor solution to cultured cells of rice.
(4) Hybridization: RNA for Northern hybridization was denatured using the glyoxal method. 2.7 μl of glyoxal (final concentration, 1M), 1.6 μl of sodium phosphate (pH 7.0, final concentration, 10 mM), and 8 μl of dimethylsulfoxide (final concentration, 50%) were added to 10 μg of total RNA (3.7 μl). The mixture was kept at 50° C. for one hour and then subjected to electrophoresis in 1.4% agarose (10 mM sodium phosphate, pH 7.0). After electrophoresis, RNA was blotted onto a nylon membrane (Biodyne A). The RNA was fixed onto the membrane by treatment for two hours at 80° C. Hybridization was carried out in a mixture of 50% formamide, 0.1% SDS, 0.1 mg/ml salmon sperm DNA, 5×SSPE (0.9 M NaCl, 50 mM sodium phosphate, 5 mM EDTA, pH 7.4), and 5× Denhardt's solution (0.1% bovine serum albumin, 0.1% Ficoll, 0.1% polyvinylpyrrolidone) at 42° C. for one day. The membrane was then washed with 0.1×SSC (15 mM NaCl, 1.5 mM sodium citrate) three times for five minutes each time at room temperature, and twice for 30 minutes each time at 65° C., and then exposed on x-ray film.

[2] = system: CIGR1 gene and CIGR2 gene; assay: Expression of CIGR1 and CIGR2 genes in green leaves of rice after GA3 spraying; type: in vivo, rice (Nipponbare); details: third and fourth leaves, three weeks after seeding, sprayed with GA3 (50 μM)
Procedure: as §2
(§3) (3) A method for gibberellin treatment of cultured cells and green leaves: The cultured cells were pre-washed several times with 2,4-D-free N6 medium, and then suspended in the same medium and shaken for two hours at 25° C. […]
In the presence of auxins, cultured plant cells are thought to be in an undifferentiated state. […] Thus, the responses of these two genes to gibberellin were analyzed in the green leaves of rice. […]

[3] = system: CHRC, a carotenoid-associated protein in the chromoplasts of cucumber petals; details: cited from earlier work
[4] = system: CIGR1 gene and CIGR2 gene; assay: Effect of protein kinase/phosphatase inhibitors on GA3 induction of CIGR1 and CIGR2 genes in cultured rice cells; type: cell-based; details: inhibitor added ten minutes before treatment; okadaic acid 1 μM, lavendustin A 30 μM, K-252a 20 μM
Procedure: (§4) FIG. 11 depicts photographs representing the effects of protein kinase inhibitors on elicitor response and gibberellin response. The following compounds were added ten minutes before treatment with chitin heptamer (GN7) or gibberellin (GA3). (A): the positive elicitor response control; (B) : okadaic acid (1 μM); (C) : lavendustin A (30 μM); (D) : K-252a (20 μM).
as §1, §2, §3

[5] = system: CIGR1 gene and CIGR2 gene; assay: Effect of protein kinase/phosphatase inhibitors on chitin heptamer induction of CIGR1 and CIGR2 genes in cultured rice cells; type: cell-based; details: inhibitor added ten minutes before treatment; okadaic acid 1 μM, lavendustin A 30 μM, K-252a 20 μM
Procedure: as §4, §1, §2, §3

α-amylase = details: aleurone layer of wheat, cited from earlier work
[6] = system: elicitor-responsive genes; details: K-252a pretreatment; cited from earlier work
[7] = system: CIGR1 gene and CIGR2 gene; assay: Elicitor (chitin/chitosan oligomer) induction of CIGR1 and CIGR2 gene expression in cultured rice cells (Northern blot hybridization); type: cell-based, rice (Oryza sativa cv. Nipponbare)
Procedure: as §1, §2
(3) A method for gibberellin treatment of cultured cells and green leaves: The cultured cells were pre-washed several times with 2,4-D-free N6 medium, and then suspended in the same medium and shaken for two hours at 25° C. Gibberellin (GA3 dissolved in ethanol) was added to make up each final concentration, cells were cultured with shaking for predetermined periods, and then used for RNA extraction. Nipponbare plants grown for three weeks after seeding were sprayed with gibberellin. The third and fourth leaves were collected at certain intervals, and total RNA was extracted. […]

[8] = ten minutes of GA3 treatment, 2,4-D-free medium

C=C1C[C@]23C[C@@]1(O)CC[C@H]2[C@@]12CC[C@H](O)[C@@](C)(C(=O)O1)[C@H]2[C@@H]3C(=O)O [GA1]
induction of CIGR1 and CIGR2 gene expression by gibberellin species [1]: induced the expression of both genes

C=C1C[C@]23C[C@@]1(O)CC[C@H]2[C@@]12C=C[C@H](O)[C@@](C)(C(=O)O1)[C@H]2[C@@H]3C(=O)O [GA3]
expression of CIGR1 and CIGR2 genes over time after GA3 treatment ([1]; cells pre-washed with 2,4-D-free medium, two hours of pre-culture in the same medium): Transient expression with a maximum at ten minutes after treatment
induction of CIGR1 and CIGR2 gene expression by gibberellin species [1]: induced the expression of both genes
change in gene expression (CIGR1, CIGR2) after GA3 treatment ([1]; suspension-cultured cells in medium comprising 2,4-D, observed for three hours after treatment): no significant change in expression amount was found; also recorded: No change in gene expression was detected
GA3 concentration at which induction of expression of both genes began to appear [1, 8]: 10^−6 M
GA3 concentration at which induction reached near saturation [1, 8]: ~10^−4 M
time of maximum transient expression of both genes after spraying [2]: 30 min
GA3 concentration required for induction of CHRC [3]: at least 10^−7 M
GA3 concentration up to which CHRC expression level increased approximately linearly [3]: up to 10^−4 M

C=C1C[C@]23C[C@H]1CC[C@H]2[C@@]12CC[C@H](O)[C@@](C)(C(=O)O1)[C@H]2[C@@H]3C(=O)O [GA4]
induction of CIGR1 and CIGR2 gene expression by gibberellin species [1]: induced the expression of both genes

C=C1C[C@]23C[C@H]1CC[C@H]2[C@]1(C(=O)O)CC[C@H](O)[C@@](C)(C(=O)O)[C@H]1[C@@H]3C(=O)O [GA13]
induction of CIGR1 and CIGR2 gene expression by gibberellin species [1]: only active type gibberellins induced the expression of both genes

C=C1C[C@]23C[C@@]1(O)CC[C@H]2[C@]1(C(=O)O)CCC[C@@](C)(C(=O)O)[C@H]1[C@@H]3C(=O)O [GA17]
induction of CIGR1 and CIGR2 gene expression by gibberellin species [1]: only active type gibberellins induced the expression of both genes

COC(=O)[C@@]1(O)C[C@H]2O[C@]1(C)n1c3ccccc3c3c4c(c5c6ccccc6n2c5c31)C(=O)NC4 [K-252-A]
inhibition of induction of both genes by GA3 [4]: almost completely inhibited
inhibition of induction of both genes by chitin heptamer [5]: almost completely inhibited
inhibition of gibberellin's induction of α-amylase (α-amylase; listed as K252a): hardly inhibited induction
inhibition of induction of expression of elicitor-responsive genes [6]: strongly inhibited

O=C(O)c1cc(N(Cc2ccccc2O)Cc2cc(O)ccc2O)ccc1O [Lavendustin A]
inhibition of induction of both genes by GA3 [4]: inhibited induction by GA3 almost completely
inhibition of induction of both genes by chitin heptamer [5]: hardly inhibited

CC(=O)N[C@H]1[C@H](O[C@@H]([C@H](O)[C@H](C=O)NC(C)=O)[C@H](O)CO)O[C@H](CO)[C@@H](O[C@@H]2O[C@H](CO)[C@@H](O[C@@H]3O[C@H](CO)[C@@H](O[C@@H]4O[C@H](CO)[C@@H](O[C@@H]5O[C@H](CO)[C@@H](O[C@@H]6O[C@H](CO)[C@@H](O)[C@H](O)[C@H]6NC(C)=O)[C@H](O)[C@H]5NC(C)=O)[C@H](O)[C@H]4NC(C)=O)[C@H](O)[C@H]3NC(C)=O)[C@H](O)[C@H]2NC(C)=O)[C@@H]1O [chitin heptamers, N-acetylchitoheptaose]
response of both genes to chitin oligomers and chitosan oligomers ([7]; chitin monomers to heptamers, tetramer and heptamer chitosan oligomers): strongest responses
time up to which expression continued to increase ([7]; time-course after chitin heptamer treatment): up to 90 minutes
increase in mRNA amount of both genes after elicitor treatment ([7]; time-course in cultured rice cells): Significant increases in mRNA amount were observed in both genes five minutes after treatment

C=C1[C@@H](O)[C@@H]2O[C@]3(CC[C@H](/C=C/[C@@H](C)[C@@H]4CC(C)=C[C@@]5(O[C@H](C[C@@](C)(O)C(=O)O)CC[C@H]5O)O4)O3)CC[C@H]2O[C@@H]1[C@@H](O)C[C@H](C)[C@H]1O[C@@]2(CCCCO2)CC[C@H]1C [okadaic acid]
inhibition of induction of both genes by GA3 [4]: inhibited almost completely
inhibition of induction of both genes by chitin heptamer [5]: hardly inhibited
inhibition of gibberellin's induction of α-amylase (α-amylase): specifically inhibited; also recorded: inhibited by okadaic acid

— patent US20050153288A1, “Methods for identifying gibberellin responsive genes using cultured vegetable cells” (priority 2001, published 2005)
